Laboratory results reported in ChEMBL document CHEMBL1201862, “PubChem BioAssay data set” (2004).
The source made the active and inactive calls.

What was measured:
[1] = system: Streptococcus sp. 'group A'; test: growth inhibition of control SK(-) GAS strain, dose response, counter-screen for streptokinase expression inhibitor project, luminescence, kanamycin, BacTiterGlo, confirmation (AID 1900); assay type: functional, organism-based
Streptokinase A = molecular target: T1, Streptokinase A (Streptococcus pyogenes serotype M1, UniProt P10520); test: S. pyogenes streptokinase expression inhibitors, potency, dose response, plasminogen activation absorbance, OD405 (AID 1914); assay type: functional, Streptococcus pyogenes M1 GAS;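 further: secreted streptokinase activity via plasminogen activation per viability signal from cell pellet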
T1 sequence (P10520 whole entry): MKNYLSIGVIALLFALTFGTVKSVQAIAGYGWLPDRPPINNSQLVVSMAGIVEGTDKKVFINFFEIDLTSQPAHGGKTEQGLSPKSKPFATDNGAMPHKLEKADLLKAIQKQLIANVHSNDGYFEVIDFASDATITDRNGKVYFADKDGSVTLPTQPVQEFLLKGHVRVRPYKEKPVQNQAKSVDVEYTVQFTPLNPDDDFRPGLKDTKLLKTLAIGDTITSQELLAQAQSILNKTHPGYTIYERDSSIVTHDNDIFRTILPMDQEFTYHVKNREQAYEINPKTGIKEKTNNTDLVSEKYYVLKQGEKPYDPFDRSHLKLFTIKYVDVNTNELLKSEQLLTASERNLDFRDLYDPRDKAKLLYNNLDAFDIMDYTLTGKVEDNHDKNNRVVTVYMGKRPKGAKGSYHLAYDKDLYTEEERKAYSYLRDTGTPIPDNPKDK

Streptococcus = test: Group A Streptococcus viability loss, dose response, counter-screen for streptokinase expression inhibitor project, luminescence, BacTiterGlo (AID 1915); assay type: functional, organism-based;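 further: potency for reduction of bacterial viability or growth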
[2] = molecular target: NACHT, LRR and PYD domains-containing protein 3 (Homo sapiens, UniProt Q96P20); test: NALP3 inhibitors in yeast, dose response, luminescent (AID 488799); assay type: functional
[3] = molecular target: T2, Corticotropin-releasing factor receptor 2/Corticotropin-releasing factor-binding protein (Homo sapiens, UniProt P24387+Q13324); test: activators of CRF receptor 2 with binding protein – uHTS hits, confirmation (AID 602473); assay type: functional; settings: read-out: EC50_Mean
T2 sequence (Q13324 whole entry): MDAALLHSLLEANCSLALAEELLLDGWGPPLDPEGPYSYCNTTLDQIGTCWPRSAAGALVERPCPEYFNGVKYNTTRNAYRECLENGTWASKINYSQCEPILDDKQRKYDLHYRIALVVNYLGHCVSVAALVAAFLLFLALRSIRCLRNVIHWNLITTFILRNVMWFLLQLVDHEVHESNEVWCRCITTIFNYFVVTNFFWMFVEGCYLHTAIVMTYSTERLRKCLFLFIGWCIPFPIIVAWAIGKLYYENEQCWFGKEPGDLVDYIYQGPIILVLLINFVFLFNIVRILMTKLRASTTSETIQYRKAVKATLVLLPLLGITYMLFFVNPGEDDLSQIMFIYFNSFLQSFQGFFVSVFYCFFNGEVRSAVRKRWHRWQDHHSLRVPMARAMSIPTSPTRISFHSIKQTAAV
T2 sequence (P24387 whole entry): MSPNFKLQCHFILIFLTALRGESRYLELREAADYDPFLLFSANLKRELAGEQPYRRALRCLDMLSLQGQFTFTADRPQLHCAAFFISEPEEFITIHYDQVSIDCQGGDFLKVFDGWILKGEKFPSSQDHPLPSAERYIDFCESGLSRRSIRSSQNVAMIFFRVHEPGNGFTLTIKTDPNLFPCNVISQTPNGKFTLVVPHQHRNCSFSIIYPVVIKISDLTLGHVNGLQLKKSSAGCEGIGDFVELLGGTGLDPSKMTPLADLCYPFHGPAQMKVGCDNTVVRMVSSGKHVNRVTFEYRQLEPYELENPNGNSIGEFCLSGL

Albumin = Albumin (Bos taurus, UniProt P02769); test: Counterscreen for inhibitors of T-cell receptor (TCR)-CD3 interaction: Fluorescence-based biochemical high throughput dose response assay to identify inhibitors of T-cell receptor (TCR)-CD3 interaction using a TAMRA-labeled BSA probe.; assay type: functional
[4] = molecular target: DNA dC->dU-editing enzyme APOBEC-3A (Homo sapiens, UniProt P31941); test: Dose Response confirmation of small molecule APOBEC3A DNA Deaminase Inhibitors via a fluorescence-based single-stranded DNA deaminase assay. [Related pubchem assays (depositor defined):AID493011, AID493024]; assay type: functional
[5] = molecular target: DNA dC->dU-editing enzyme APOBEC-3G (Homo sapiens, UniProt Q9HC16); assay type: functional;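 further: Dose-response counterscreen measuring inhibition of APOBEC3G DNA deaminase activity, run while confirming APOBEC3A inhibitors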
[6] = molecular target: T3, Dual specificity protein phosphatase 3 (Homo sapiens, UniProt P51452); test: SAR VHR1 absorbance Assay for In Vitro dose response studies. [Related pubchem assays (depositor defined):AID1654, AID1661, AID1878, AID1992, AID2004]
[7] = molecular target: T3, Dual specificity protein phosphatase 3; test: SAR VHR1 Fluorescent Assay for In Vitro dose response studies. [Related pubchem assays (depositor defined):AID1654, AID1661, AID1878, AID1992, AID2004, AID2070, AID2085]; assay type: functional
[8] = molecular target: T4, Tyrosine-protein phosphatase non-receptor type 7 (Homo sapiens, UniProt P35236); test: redox-dependent HePTP inhibition, mechanism study, biochemical, fluorescence (AID 2068); assay type: functional
T4 sequence (P35236 whole entry): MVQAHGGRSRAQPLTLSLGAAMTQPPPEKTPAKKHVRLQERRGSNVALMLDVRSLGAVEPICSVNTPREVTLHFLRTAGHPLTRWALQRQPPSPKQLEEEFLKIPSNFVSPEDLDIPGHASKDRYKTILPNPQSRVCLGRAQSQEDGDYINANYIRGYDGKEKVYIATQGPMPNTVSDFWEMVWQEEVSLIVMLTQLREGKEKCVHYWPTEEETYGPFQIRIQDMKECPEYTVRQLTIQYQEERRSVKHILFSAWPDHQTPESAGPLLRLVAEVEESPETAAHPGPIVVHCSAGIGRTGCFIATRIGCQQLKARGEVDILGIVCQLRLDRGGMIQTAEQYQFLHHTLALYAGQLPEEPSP

[9] = molecular target: T3, Dual specificity protein phosphatase 3; test: SAR VHR1 Fluorescent Assay for In Vitro dose response studies Set 2. [Related pubchem assays (depositor defined):AID1654, AID1661, AID1878]; assay type: functional
[10] = molecular target: T5, Dual specificity protein phosphatase 6 (Rattus norvegicus, UniProt Q64346); assay type: functional;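 further: confirmatory in vitro dose-response testing of MKP-3 inhibition; recombinant His-tagged MKP-3 made in E. coli BL21 with OMFP substrate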
T5 sequence (Q64346 whole entry): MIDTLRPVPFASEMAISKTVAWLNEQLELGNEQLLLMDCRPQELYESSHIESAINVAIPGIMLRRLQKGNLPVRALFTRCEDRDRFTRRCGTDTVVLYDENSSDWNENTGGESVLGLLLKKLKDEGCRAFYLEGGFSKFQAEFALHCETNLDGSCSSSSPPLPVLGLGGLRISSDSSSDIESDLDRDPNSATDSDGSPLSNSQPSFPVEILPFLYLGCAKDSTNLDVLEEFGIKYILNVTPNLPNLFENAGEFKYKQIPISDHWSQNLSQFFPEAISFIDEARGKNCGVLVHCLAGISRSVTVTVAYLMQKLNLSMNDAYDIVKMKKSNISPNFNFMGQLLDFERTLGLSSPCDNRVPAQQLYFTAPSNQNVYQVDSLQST

Caspase-3 = molecular target: T6, Caspase-3 (Homo sapiens, UniProt P42574); test: procaspase-3 activators, dose response, biochemical, absorbance (AID 489014)
T6 sequence (P42574 whole entry): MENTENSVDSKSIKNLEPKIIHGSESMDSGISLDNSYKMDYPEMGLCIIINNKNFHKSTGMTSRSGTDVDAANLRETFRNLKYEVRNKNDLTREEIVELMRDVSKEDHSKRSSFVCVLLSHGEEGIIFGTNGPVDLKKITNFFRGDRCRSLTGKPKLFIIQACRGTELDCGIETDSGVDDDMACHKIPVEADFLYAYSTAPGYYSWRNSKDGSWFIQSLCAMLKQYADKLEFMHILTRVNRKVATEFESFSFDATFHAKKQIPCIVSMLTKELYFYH

Caspase-7 = molecular target: T7, Caspase-7 (Homo sapiens, UniProt P55210); test: procaspase-7 activators, dose response, counter-screen for procaspase-3 activator project, biochemical, absorbance (AID 489013)
T7 sequence (P55210 whole entry): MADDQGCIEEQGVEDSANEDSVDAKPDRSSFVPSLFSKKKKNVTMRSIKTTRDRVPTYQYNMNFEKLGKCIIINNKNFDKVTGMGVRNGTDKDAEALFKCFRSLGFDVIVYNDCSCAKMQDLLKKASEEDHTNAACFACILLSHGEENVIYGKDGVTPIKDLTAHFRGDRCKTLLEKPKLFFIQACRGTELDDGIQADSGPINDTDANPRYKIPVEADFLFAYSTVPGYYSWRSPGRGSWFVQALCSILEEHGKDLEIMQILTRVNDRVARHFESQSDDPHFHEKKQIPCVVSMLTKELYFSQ

Hexokinase = Hexokinase (Trypanosoma brucei, UniProt Q38C41); test: Confirmation assay for inhibitors of Trypanosoma brucei hexokinase 1-Analogue-first series. [Related pubchem assays (depositor defined):AID1430, AID1632, AID2516, AID2560, AID2579, AID2600, AID449725, AID492951]; assay type: functional
Cannabinoid receptor 2 [11] = molecular target: T8, Cannabinoid receptor 2 (Homo sapiens, UniProt P34972); test: SAR analysis of antagonists of the Cannabinoid Receptor 2 using an Image-Based Assay - Set 2. [Related pubchem assays (depositor defined):AID1961, AID1965]; assay type: functional
[12] = molecular target: G-protein coupled receptor 55 (Homo sapiens, UniProt Q9Y2T6); test: SAR analysis of selective Agonists of GPR55 using an Image-Based Assay - Set 2. [Related pubchem assays (depositor defined):AID1961, AID1965]; assay type: functional
Cannabinoid receptor 2 [13] = molecular target: T8, Cannabinoid receptor 2; test: SAR analysis of agonists of the Cannabinoid Receptor 2 using an Image-Based Assay - Set 2. [Related pubchem assays (depositor defined):AID1961, AID1965]; assay type: functional
[14] = molecular target: T9, G-protein coupled receptor 35 (Homo sapiens, UniProt Q9HC97); test: SAR analysis of Agonists of the GPR35 Receptor using an Image-Based Assay - Set 3. [Related pubchem assays (depositor defined):AID1961, AID1965]; assay type: functional
Cannabinoid receptor 1 [15] = molecular target: T10, Cannabinoid receptor 1 (Homo sapiens, UniProt P21554); test: SAR analysis of antagonists of the Cannabinoid Receptor 1 using an Image-Based Assay - Set 3. [Related pubchem assays (depositor defined):AID1961, AID1965]; assay type: functional
Cannabinoid receptor 1 [16] = molecular target: T10, Cannabinoid receptor 1; test: SAR analysis of agonists of the Cannabinoid Receptor 1 using an Image-Based Assay - Set 3. [Related pubchem assays (depositor defined):AID1961, AID1965]; assay type: functional
[17] = molecular target: T9, G-protein coupled receptor 35; test: SAR analysis of Antagonists of the GPR35 Receptor using an Image-Based Assay - Set 4. [Related pubchem assays (depositor defined):[…]]; assay type: functional
[18] = cytotoxicity in BJeHLT fibroblasts, dose response, counter-screen for Ras selective lethality project, BJeHLT cells, dry powder (AID 493052); assay type: functional, cell-based; settings: Homo sapiens
[19] = viability loss in HRASV12 DRD fibroblasts, dose response, cell-based, DRD BJ fibroblasts, dry powder (AID 493049); assay type: functional
[20] = viability loss in BJeLR (HRASV12) cells, primary screen, Ras selective lethality project, cell-based, Alamar Blue, dry powder (AID 493045); assay type: functional
[21] = cytotoxicity in BJeH fibroblasts, dose response, counter-screen for Ras selective lethality project, BJeH cells, dry powder (AID 493054); assay type: functional, cell-based

T3 sequence (P51452 whole entry): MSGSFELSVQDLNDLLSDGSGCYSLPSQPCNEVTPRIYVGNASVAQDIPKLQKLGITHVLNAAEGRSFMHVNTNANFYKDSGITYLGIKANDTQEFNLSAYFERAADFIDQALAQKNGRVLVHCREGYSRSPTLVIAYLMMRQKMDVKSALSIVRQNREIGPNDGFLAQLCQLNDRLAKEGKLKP
T8 sequence (P34972 whole entry): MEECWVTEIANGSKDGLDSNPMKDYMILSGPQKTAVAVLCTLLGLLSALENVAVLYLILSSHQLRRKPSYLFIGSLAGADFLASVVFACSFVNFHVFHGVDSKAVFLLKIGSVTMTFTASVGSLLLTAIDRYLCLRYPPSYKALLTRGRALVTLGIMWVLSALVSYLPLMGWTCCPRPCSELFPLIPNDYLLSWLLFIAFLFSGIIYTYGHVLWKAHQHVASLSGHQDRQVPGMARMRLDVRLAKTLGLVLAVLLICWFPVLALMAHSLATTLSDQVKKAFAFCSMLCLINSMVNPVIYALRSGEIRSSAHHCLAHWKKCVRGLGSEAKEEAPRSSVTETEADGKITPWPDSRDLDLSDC
T9 sequence (Q9HC97 whole entry): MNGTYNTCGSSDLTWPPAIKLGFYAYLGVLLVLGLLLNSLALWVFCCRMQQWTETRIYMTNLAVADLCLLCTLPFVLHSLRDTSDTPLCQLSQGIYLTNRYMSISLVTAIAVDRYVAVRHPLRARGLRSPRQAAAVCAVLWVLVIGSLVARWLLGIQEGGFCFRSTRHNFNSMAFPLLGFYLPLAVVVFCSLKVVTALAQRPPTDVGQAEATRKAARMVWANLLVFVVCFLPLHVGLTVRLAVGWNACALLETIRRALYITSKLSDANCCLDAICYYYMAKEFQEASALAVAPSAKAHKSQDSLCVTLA
T10 sequence (P21554 whole entry): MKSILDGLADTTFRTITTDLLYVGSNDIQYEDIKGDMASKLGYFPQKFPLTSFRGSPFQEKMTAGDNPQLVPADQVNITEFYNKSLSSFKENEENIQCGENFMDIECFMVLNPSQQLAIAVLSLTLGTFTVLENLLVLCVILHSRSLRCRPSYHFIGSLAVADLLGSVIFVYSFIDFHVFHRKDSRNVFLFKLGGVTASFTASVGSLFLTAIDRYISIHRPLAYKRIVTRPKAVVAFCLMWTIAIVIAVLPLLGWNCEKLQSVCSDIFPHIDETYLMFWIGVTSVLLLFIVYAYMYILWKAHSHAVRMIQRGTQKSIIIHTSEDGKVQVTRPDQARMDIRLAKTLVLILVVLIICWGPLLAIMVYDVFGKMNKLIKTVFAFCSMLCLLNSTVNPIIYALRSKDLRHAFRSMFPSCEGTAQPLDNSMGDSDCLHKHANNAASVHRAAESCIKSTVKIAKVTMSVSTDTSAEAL
Chain of DNA dC->dU-editing enzyme APOBEC-3A (P31941 whole entry): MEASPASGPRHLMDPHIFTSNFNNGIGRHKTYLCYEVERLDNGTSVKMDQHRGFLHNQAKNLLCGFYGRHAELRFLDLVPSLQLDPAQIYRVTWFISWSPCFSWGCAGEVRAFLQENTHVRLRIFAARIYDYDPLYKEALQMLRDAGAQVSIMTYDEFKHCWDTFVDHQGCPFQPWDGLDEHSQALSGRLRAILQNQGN
Chain of DNA dC->dU-editing enzyme APOBEC-3G (Q9HC16 whole entry): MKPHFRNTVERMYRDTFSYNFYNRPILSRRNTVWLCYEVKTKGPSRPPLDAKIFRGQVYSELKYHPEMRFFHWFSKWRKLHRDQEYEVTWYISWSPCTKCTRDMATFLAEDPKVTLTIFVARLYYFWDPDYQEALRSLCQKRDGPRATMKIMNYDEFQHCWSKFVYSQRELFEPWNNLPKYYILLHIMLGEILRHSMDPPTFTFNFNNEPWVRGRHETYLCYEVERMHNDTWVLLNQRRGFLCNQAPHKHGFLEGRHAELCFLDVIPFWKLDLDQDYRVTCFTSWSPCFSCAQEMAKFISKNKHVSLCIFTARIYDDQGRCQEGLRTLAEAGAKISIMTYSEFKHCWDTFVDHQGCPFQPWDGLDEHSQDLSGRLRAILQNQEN
Chain of G-protein coupled receptor 55 (Q9Y2T6 whole entry): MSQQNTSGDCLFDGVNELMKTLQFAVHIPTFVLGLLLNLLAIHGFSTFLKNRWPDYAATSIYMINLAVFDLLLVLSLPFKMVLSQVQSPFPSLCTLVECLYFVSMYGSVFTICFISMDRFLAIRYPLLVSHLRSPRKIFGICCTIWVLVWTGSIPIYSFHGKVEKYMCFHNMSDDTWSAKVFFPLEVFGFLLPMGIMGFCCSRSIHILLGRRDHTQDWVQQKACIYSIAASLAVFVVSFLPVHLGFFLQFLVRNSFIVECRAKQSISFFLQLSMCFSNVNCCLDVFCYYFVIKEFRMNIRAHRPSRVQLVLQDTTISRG
Chain of Hexokinase (Q38C41 whole entry): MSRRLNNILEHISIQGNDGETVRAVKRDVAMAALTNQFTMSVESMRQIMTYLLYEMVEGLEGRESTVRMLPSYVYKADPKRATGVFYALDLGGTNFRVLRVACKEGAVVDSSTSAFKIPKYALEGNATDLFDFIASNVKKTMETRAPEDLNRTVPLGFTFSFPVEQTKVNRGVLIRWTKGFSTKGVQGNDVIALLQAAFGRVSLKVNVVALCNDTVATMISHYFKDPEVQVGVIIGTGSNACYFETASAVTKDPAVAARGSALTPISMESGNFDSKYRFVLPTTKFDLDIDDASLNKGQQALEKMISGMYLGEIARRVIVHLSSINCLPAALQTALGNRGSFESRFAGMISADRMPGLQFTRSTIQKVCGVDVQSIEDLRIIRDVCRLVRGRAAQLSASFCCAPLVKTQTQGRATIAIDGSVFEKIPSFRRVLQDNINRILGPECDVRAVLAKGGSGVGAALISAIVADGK
Chain of NACHT, LRR and PYD domains-containing protein 3 (Q96P20 whole entry, the tested form may be a part): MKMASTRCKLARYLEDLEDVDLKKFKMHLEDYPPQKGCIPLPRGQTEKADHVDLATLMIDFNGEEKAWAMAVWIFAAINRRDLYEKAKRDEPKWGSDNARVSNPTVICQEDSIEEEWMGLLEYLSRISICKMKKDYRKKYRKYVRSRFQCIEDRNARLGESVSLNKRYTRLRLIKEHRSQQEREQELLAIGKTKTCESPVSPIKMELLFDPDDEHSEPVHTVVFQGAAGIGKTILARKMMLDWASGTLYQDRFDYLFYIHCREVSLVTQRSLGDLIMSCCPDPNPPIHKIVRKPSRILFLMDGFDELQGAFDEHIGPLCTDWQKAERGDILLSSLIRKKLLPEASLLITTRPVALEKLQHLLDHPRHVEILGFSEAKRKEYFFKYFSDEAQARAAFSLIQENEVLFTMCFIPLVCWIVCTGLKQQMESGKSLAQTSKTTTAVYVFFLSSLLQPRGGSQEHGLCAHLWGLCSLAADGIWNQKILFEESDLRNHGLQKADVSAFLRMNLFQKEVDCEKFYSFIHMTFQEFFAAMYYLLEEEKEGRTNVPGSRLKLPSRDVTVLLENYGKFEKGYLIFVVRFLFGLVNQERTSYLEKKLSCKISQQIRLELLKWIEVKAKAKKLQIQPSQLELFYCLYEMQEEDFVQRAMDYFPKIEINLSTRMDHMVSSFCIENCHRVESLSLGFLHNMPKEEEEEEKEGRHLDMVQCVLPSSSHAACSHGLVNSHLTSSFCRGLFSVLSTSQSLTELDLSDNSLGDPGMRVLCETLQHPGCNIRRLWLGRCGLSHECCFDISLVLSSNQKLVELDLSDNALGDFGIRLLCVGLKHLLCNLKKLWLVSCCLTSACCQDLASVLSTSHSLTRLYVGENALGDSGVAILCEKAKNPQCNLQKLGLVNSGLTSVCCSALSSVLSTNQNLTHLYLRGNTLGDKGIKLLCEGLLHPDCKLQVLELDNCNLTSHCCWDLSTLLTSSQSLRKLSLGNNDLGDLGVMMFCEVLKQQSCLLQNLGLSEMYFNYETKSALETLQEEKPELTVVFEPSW
Chain of Albumin (P02769 whole entry): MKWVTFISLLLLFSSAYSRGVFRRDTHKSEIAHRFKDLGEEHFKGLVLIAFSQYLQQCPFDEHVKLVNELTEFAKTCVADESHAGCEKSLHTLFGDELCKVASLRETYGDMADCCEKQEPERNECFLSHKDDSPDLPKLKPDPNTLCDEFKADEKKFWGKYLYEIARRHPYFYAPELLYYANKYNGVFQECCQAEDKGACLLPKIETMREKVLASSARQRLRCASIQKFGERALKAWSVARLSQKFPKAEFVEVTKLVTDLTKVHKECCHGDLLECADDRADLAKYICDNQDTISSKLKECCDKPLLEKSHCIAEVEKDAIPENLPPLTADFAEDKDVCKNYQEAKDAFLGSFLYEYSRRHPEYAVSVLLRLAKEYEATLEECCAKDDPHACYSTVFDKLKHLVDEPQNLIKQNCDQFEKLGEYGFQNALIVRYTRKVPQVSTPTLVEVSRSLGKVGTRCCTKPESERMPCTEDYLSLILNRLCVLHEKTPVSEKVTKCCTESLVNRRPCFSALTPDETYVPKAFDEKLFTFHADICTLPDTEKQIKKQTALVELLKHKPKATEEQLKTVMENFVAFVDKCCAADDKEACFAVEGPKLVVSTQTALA

Cn1c(=O)c(C(=O)NNC(=O)c2ccccc2F)c(O)c2ccccc21
EC50 [1]: 4.65 µM (active) | EC50 (Streptokinase A): > 150 µM (not active) | EC50 (Streptococcus): 18.6 µM (active) | IC50 [2]: 1.94 µM (active) | EC50 [3]: 5.36 µM (active) | IC50 (Albumin): > 94.1 µM (inactive)

COc1ccccc1OC(C)C(=O)N1CCC(Cc2ccccc2)CC1 (stereo unspecified)
IC50 [4]: 7.11 µM (active) | IC50 [5]: 6.99 µM (active)

NS(=O)(=O)c1cccc(C(=O)NC2CCSc3ccccc32)c1 (stereo unspecified)
IC50 [6]: > 100 µM (inactive) | IC50 [7]: > 100 µM (inactive) | IC50 [8]: > 100 µM (inactive) | IC50 [9]: > 100 µM (inactive) | IC50 [10]: > 100 µM (inactive)

CC(NC(=O)c1cc2cc([N+](=O)[O-])ccc2oc1=O)C1CCCO1 (stereo unspecified)
EC50 (Caspase-3): 13.4 µM (inactive) | EC50 (Caspase-7): 20.2 µM (inactive)

CC(C)(C)c1ccc(C(=O)Nc2cc(Br)ccc2C(=O)O)cc1
IC50 (Hexokinase): 2.39 µM (active)

CCCc1cc(C(=O)Nc2cc(S(=O)(=O)N3CCOCC3)ccc2OC)sc1C
IC50 (Cannabinoid receptor 2 [11]): > 32 µM (inactive) | EC50 [12]: > 32 µM (inactive) | EC50 (Cannabinoid receptor 2 [13]): > 32 µM (inactive) | EC50 [14]: > 32 µM (inactive) | IC50 (Cannabinoid receptor 1 [15]): 7.68 µM (active) | EC50 (Cannabinoid receptor 1 [16]): > 32 µM (inactive) | IC50 [17]: > 32 µM (inactive)

O=C(NCCc1ccccc1)C(c1cccs1)N(C(=O)CCl)c1cccc(Cl)c1 (stereo unspecified)
AC50 [18]: 0.331 µM (active) | AC50 [19]: 0.154 µM (active) | AC50 [20]: 0.156 µM (active) | AC50 [21]: 0.544 µM (active)

COc1ccc(N(C(=O)CCl)C(C)(C)C(=O)NCCc2ccccc2)cc1Cl
AC50 [18]: 0.127 µM (active) | AC50 [19]: 0.06 µM (active) | AC50 [20]: 0.058 µM (active) | AC50 [21]: 0.254 µM (active)

COc1ccc2c(c1)cc(C)c1nnc(SCC(=O)Nc3nc(C)cs3)n12
IC50 (Cannabinoid receptor 2 [11]): > 32 µM (inactive) | EC50 [12]: > 32 µM (inactive) | EC50 (Cannabinoid receptor 2 [13]): > 32 µM (inactive) | EC50 [14]: > 32 µM (inactive) | IC50 (Cannabinoid receptor 1 [15]): > 32 µM (inactive) | EC50 (Cannabinoid receptor 1 [16]): > 32 µM (inactive) | IC50 [17]: > 32 µM (inactive)

CCN1CCN(c2ccc(S(=O)(=O)N3CCCCC3)cc2NC(=O)c2ccc(OC(F)F)cc2)CC1
IC50 [4]: 10.9 µM (active) | IC50 [5]: 9.05 µM (active)

N#Cc1ccc(Oc2ccc3c(c2)B(O)OC3)cc1
IC50 (Hexokinase): > 25 µM (inactive)
